PMC9127750, “Structure-based design of CDC42 effector interaction inhibitors for the treatment of cancer” (Cell reports, 2022)
Where “and” joins values, the source holds several entries; their conditions need not be identical. Equal values may be shown once.

System: WM3248 melanoma cells, 486 antibodies
Assay: Reverse phase protein arrays (RPPA)
Type: cell-based, Human
Conditions: 5 uM
Description: Pellets were snap frozen in liquid nitrogen and shipped to MD Anderson Cancer Center core RPPA facility for RPPA analysis (Table S5). Three biological replicates for each sample were generated.
Nomenclatures on the RPPA heatmaps: name_of_antibody.species_of_antibody.status_of_antibody. V - antibody validated; C - validation of antibody in progress; Q - antibody nonspecific; E – under evaluation; antibodies raised in M - mouse, G - goat, R - rabbit, or T - rat.

## CN(C)c1cccc(Nc2cc(-c3ccccc3)nc(C3CCNCC3)n2)c1 [ARN22089, N1,N1-dimethyl-N3-(6-phenyl-2-(piperidin-4-yl)pyrimidin-4-yl)benzene-1,3-diamine]
Single replicates
  RPPA RIP3.R.C: 0.966 and 1.053 and 1.158
  RPPA RIP.R.C: 1.003 and 0.876 and 0.747
  RPPA RPA32.R.V: 0.852 and 0.696
  RPPA RPA32_pS4_S8.R.C: 1.136 and 0.833 and 0.517
  RPPA RRM1.R.C: 0.879 and 1.059 and 1.047
  RPPA RRM2.R.C: 0.859 and 1.229 and 0.937
  RPPA RSK1.R.V: 1.126 and 0.877 and 0.665
  RPPA RSK.R.C: 1.019 and 0.958
  RPPA Rab11.R.C: 0.952 and 1.156 and 1.116
  RPPA Rab25.R.V: 0.918 and 1.136 and 1.098
  RPPA Rad17_pS645.R.V: 0.999 and 1.251 and 0.988
  RPPA Rad23A.R.C: 0.955 and 1.149 and 0.502
  RPPA Rad50.R.V: 1.003 and 1.194 and 0.770
  RPPA Rad51.R.C: 1.003 and 1.032 and 0.980
  RPPA Raptor.R.V: 0.960 and 1.161 and 0.962
  RPPA Rb.M.Q: 1.194 and 0.869 and 0.844
  RPPA Rb_pS807_S811.R.V: 1.080 and 1.099 and 0.998
  RPPA Rheb.M.C: 1.062 and 0.914 and 0.936
  RPPA Rictor.R.C: 1.000 and 1.032 and 1.026
  RPPA Rictor_pT1135.R.V: 1.014 and 1.199 and 1.106
  RPPA S6.M.V: 1.062 and 0.879 and 1.272
  RPPA S6_pS235_S236.R.V: 1.439 and 1.242 and 1.218
  RPPA S6_pS240_S244.R.V: 1.857 and 2.231 and 1.126
  RPPA SCD.M.V: 1.065 and 0.945 and 1.006
  RPPA SDHA.R.V: 0.933 and 1.191 and 1.108
  RPPA SF2.R.V: 1.031 and 0.941 and 1.112
  RPPA SFRP1.R.V: 1.004 and 0.892 and 0.990
  RPPA SGK1.R.V: 1.163 and 1.199 and 0.933
  RPPA SGK3.R.V: 0.990 and 0.992 and 0.997
  RPPA SHP2.R.V: 1.046 and 0.930 and 1.005
  RPPA SHP.2_pY542.R.C: 0.901 and 0.851
  RPPA SIRPαR.V: 1.213 and 0.860 and 0.910
  RPPA SLC1A5.R.C: 0.927 and 0.907 and 0.859
  RPPA SOD1.M.V: 0.996 and 0.939
  RPPA SOD2.R.V: 1.034 and 0.952 and 1.114
  RPPA SOX7.R.V: 0.983 and 0.930 and 0.848
  RPPA STING.R.V: 0.930 and 1.130 and 0.957
  RPPA Shc_pY317.R.C: 0.667 and 0.896
  RPPA Slfn11.G.C: 0.877 and 0.828 and 0.650
  RPPA Smac.M.Q: 0.952 and 1.016 and 0.799
  RPPA Smad1.R.V: 0.992 and 1.196 and 1.151
  RPPA Smad3.R.V: 0.939 and 1.113 and 0.837
  RPPA Smad4.R.V: 1.058 and 0.905 and 1.133
  RPPA Snail.M.Q: 1.030 and 0.955 and 1.052
  RPPA Sox2.R.V: 0.983 and 0.974 and 1.000
  RPPA Sox17.R.V: 0.873 and 0.902
  RPPA Src.M.V: 1.031 and 1.029 and 1.140
  RPPA Src_pY416.R.V: 1.004 and 0.964
  RPPA Src_pY527.R.V: 0.980 and 1.499
  RPPA Stat1_pY701.R.V: 1.025 and 0.919 and 0.955
  RPPA Stat3.R.C: 1.026 and 1.019
  RPPA Stat3_pY705.R.C: 1.097 and 0.794 and 0.850
  RPPA Stat5a.R.V: 0.973 and 1.401 and 1.115
  RPPA Stathmin.1.R.V: 0.937 and 0.952 and 1.084
  RPPA Syk.M.V: 0.889 and 1.061 and 1.011
  RPPA Synaptophysin.R.C: 1.047 and 0.925 and 1.079
  RPPA TAZ.R.V: 1.033 and 0.986 and 0.848
  RPPA TEAD.R.C: 0.869 and 1.210 and 0.956
  RPPA TFAM.R.V: 0.929 and 1.064 and 1.050
  RPPA TFRC.R.V: 0.850 and 0.994
  RPPA TIGAR.R.V: 1.007 and 1.053
  RPPA TRAP1.M.V: 1.020 and 0.986
  RPPA TRIM24.R.C: 1.055 and 0.901
  RPPA TRIM25.R.C: 0.917 and 1.142 and 1.151
  RPPA TRIP13.R.V: 1.080 and 0.849 and 0.914
  RPPA Tau.M.C: 0.914 and 1.000
  RPPA Transglutaminase.M.V: 1.130 and 0.535
  RPPA level HLA.DQA1.R.V: 0.968 and 1.061 and 0.815
  RPPA level HLA.DR.DP.DQ.DX.R.C: 0.974 and 0.976 and 0.833
  RPPA level HMHA1.R.V: 1.021 and 1.238 and 1.140
  RPPA level HNRNPK.R.V: 0.971 and 0.906
  RPPA level HSP27.M.C: 1.164 and 1.033
  RPPA level HSP27_pS82.R.V: 0.984 and 1.234 and 1.120
  RPPA level HSP60.R.V: 0.905 and 1.108
  RPPA level HSP70.R.C: 0.973 and 0.970
  RPPA level Hexokinase.I.R.C: 0.945 and 0.709
  RPPA level Hexokinase.II.R.V: 1.124 and 0.975 and 0.876
  RPPA level Hif.1αR.C: 1.102 and 1.349 and 0.701
  RPPA level Histone.H3.R.V: 0.982 and 1.330 and 0.576
  RPPA level Histone.H3_pS10.R.V: 0.692 and 0.713
  RPPA level IDO.R.C: 0.970 and 1.199 and 1.031
  RPPA level IGF1R_pY1135_Y1136.R.V: 0.923 and 1.035 and 1.147
  RPPA level IGFBP2.R.V: 0.536 and 0.864 and 1.227
  RPPA level IGFBP3.M.V: 0.749 and 0.955 and 1.168
  RPPA level IGFRb.R.C: 0.930 and 1.171
  RPPA level IL.6.R.C: 0.941 and 1.064 and 1.146
  RPPA level IMP3.R.C: 0.986 and 0.965
  RPPA level INPP4b.R.C: 1.116 and 0.899 and 0.832
  RPPA level IR.b.R.C: 1.320 and 1.103
  RPPA level IRF.1.R.V: 0.717 and 1.139 and 1.144
  RPPA level IRF.3.R.V: 0.919 and 1.034
  RPPA level IRS1.R.V: 0.981
  RPPA level IRS2.R.C: 0.999 and 0.927 and 0.986
  RPPA level JAB1.M.C: 1.009 and 0.971
  RPPA level JNK2.R.V: 0.702 and 1.165 and 0.800
  RPPA level JNK_pT183_Y185.R.C: 0.946 and 1.035 and 1.097
  RPPA level Jagged1.R.V: 0.958 and 1.186 and 0.974
  RPPA level Jak2.R.V: 0.877 and 1.121
  RPPA level KAP1.R.V: 1.023 and 0.961 and 0.759
  RPPA level KEAP1.R.V: 1.060 and 0.798 and 0.885
  RPPA level LAD1.R.V: 0.906 and 1.221 and 0.985
  RPPA level LC3A.B.R.C: 0.962 and 0.690
  RPPA level LCN2.R.V: 2.079 and 0.667 and 0.750
  RPPA level LDHA.R.C: 1.269 and 0.924 and 0.174
  RPPA level LRP6_pS1490.R.V: 0.923 and 1.082 and 1.190
  RPPA level Lasu1.R.V: 0.830 and 0.833
  RPPA level Lck.R.V: 0.914 and 1.025 and 0.835
  RPPA level Lyn.R.V: 0.857 and 0.712
  RPPA level MACC1.R.V: 0.983 and 0.952 and 1.126
  RPPA level MAPK_pT202_Y204.R.C: 0.962 and 0.989 and 1.287
  RPPA level MCT4.R.V: 0.631 and 1.046 and 1.198
  RPPA level MDM2_pS166.R.V: 0.981 and 1.059 and 0.658
  RPPA level MEK1.R.V: 0.979 and 2.685
  RPPA level MEK1_pS217_S221.R.V: 0.968 and 1.488 and 0.918
  RPPA level MEK2.R.V: 1.028 and 1.188 and 0.905
  RPPA level MERIT40.R.C: 0.976 and 0.913
  RPPA level MERIT40_pS29.R.V: 0.986 and 0.944
  RPPA level METTL3.R.V: 1.157 and 0.890 and 0.714
  RPPA level MIF.R.C: 0.954 and 1.000
  RPPA level MIG6.R.V: 1.004 and 0.977
  RPPA level MITF.R.V: 1.035 and 0.897
  RPPA level MLH1.M.V: 0.967 and 0.818
  RPPA level MLKL.R.V: 0.948
  RPPA level MMP2.R.V: 1.053 and 0.940 and 0.993
  RPPA level MMP14.R.V: 0.806 and 0.852 and 1.235
  RPPA level MR1.M.C: 0.985 and 1.126 and 0.989
  RPPA level MRAP.R.C: 1.027 and 1.099 and 1.056
  RPPA level MSH2.R.C: 0.981 and 0.975 and 0.839
  RPPA level MSH6.R.C: 0.974 and 1.034 and 0.768
  RPPA level MSI2.R.C: 1.007 and 0.996 and 1.009
  RPPA level MTCO1.M.V: 1.026 and 0.959 and 0.846
  RPPA level MTSS1.M.C: 0.922 and 1.002
  RPPA level Mcl.1.R.V: 0.903 and 1.197 and 1.129
  RPPA level MelanA.R.C: 0.929 and 1.064 and 1.083
  RPPA level Melanoma.gp100.R.C: 0.903 and 1.116 and 1.163
  RPPA level Merlin.R.C: 0.905 and 1.160 and 0.615
  RPPA level Midkine.R.V: 1.000 and 0.968 and 1.034
  RPPA level Mitofusin.1.R.V: 0.993 and 1.106 and 1.060
  RPPA level Mitofusin.2.R.V: 0.878 and 0.979
  RPPA level Mnk1.R.V: 1.011 and 1.102
  RPPA level mTOR.R.V: 1.085 and 1.120 and 0.844
  RPPA level mTOR_pS2448.R.C: 1.164 and 0.821
  RPPA p21.R.C: 1.391 and 0.730 and 1.025
  RPPA p27.Kip1.R.C: 1.014 and 0.921 and 0.908
  RPPA p27_pT157.R.C: 0.998 and 1.050 and 0.780
  RPPA p27_pT198.R.V: 0.905 and 1.281 and 1.122
  RPPA p38.MAPK.R.V: 1.001 and 1.097
  RPPA p38.MAPK._pT180_Y182.R.V: 0.866 and 2.597 and 1.276
  RPPA p38.a.M.V: 1.063 and 0.940 and 0.948
  RPPA p44.42.MAPK.R.V: 1.135 and 1.025 and 0.778
  RPPA p53.R.C: 0.836 and 1.157 and 1.162
  RPPA p70.S6K1.R.V: 1.053 and 0.972
  RPPA p70.S6K_pT389.R.V: 0.923 and 1.455 and 1.050
  RPPA p90RSK_pT573.R.C: 1.055 and 0.692
Single samples
  RPPA DNMT1.R.V: 0.942 and 1.005
  RPPA DRP1.R.V: 1.048 and 0.924 and 1.058
  RPPA DUSP4.R.V: 1.207
  RPPA DUSP6.R.C: 1.757
  RPPA DYRK1B.R.C: 1.023 and 0.961 and 1.055
  RPPA Dvl3.R.V: 0.942 and 1.023 and 1.077
  RPPA E2F1.R.V: 0.971 and 1.007 and 0.906
  RPPA E.Cadherin.R.V: 0.967 and 0.935 and 0.968
  RPPA EGFR.R.V: 0.950 and 1.055 and 0.936
